Experimental data reported in patent US9624242B2, “11-2(2-pyrrolidin-1-yl-ethoxy)-14,19-dioxa-5,7,26-triaza-tetracyclo[19.3.1.1(2,6).1(8,12)]heptacosa-1(25),2(26),3,5,8,10,12(27),16,21,23-decaene citrate salt” (CTI BIOPHARMA CORP., priority 2008, dated 2017).
Structures can show the parent of a compound that is named as a salt. Where two headings read alike, the source gives them in different places.

Tests used:
Type in all cases: physicochemical
[1] = Solid form analysis of salt batches (XRPD, DSC, TGA, GVS)
Text: Initial studies into compound I involved analysis of the hydrochloride salt. It was found as summarised in Table 1 below, that the initially prepared hydrochloride salt produces an inconsistent solid form with significant variability in the DSC, TGA, GVS and XRPD pattern (see FIGS. 1 to 16).
The samples of both hydrochloride (comparative) and citrate salts were subjected to X-ray diffraction to determine the characteristic X-ray diffraction pattern. The conditions used were as follows: X-Ray Powder Diffraction patterns were collected on a Siemens D5000 diffractometer using Cu Kα radiation (40 kV, 40 mA), θ-θ goniometer, divergence of V20 and receiving slits, a graphite secondary monochromator and a scintillation counter. The instrument is performance checked using a certified Corundum standard (NIST 1976).
Samples run under ambient conditions were prepared as flat plate specimens using powder as received. Approximately 35 mg of the sample was gently packed into a cavity cut into polished, zero-background (510) silicon wafer. The sample was rotated in its own plane during analysis. The details of the data collection are: • Angular range: 2 to 42°2θ • Step size: 0.05°2θ • Collection time: 4 s·step^1.
Alternatively, X-Ray Powder Diffraction patterns were collected on a Bruker AXS C2 GADDS diffractometer using Cu Kα radiation (40 kV, 40 mA), automated XYZ stage, laser video microscope for auto-sample positioning and a HiStar 2-dimensional area detector. X-ray optics consists of a single Gabel multilayer mirror coupled with a pinhole collimator of 0.3 mm. The beam divergence, i.e. the effective size of the X-ray beam on the sample, was approximately 4 mm. A θ-θ continuous scan mode was employed with a sample-detector distance of 20 cm which gives an effective 2θ range of 3.2°-29.7°. Typically the sample would be exposed to the X-ray beam for 120 seconds.
Samples run under ambient conditions were prepared as flat plate specimens using powder as received without grinding. Approximately 1-2 mg of the sample was lightly pressed on a glass slide to obtain a flat surface.

[2] = Thermal gravimetric analysis (TGA); settings: for TGA weight loss before degradation / melt with decomposition: result in words
Method: The samples of both hydrochloride (comparative) and citrate salts were subjected to thermal gravimetric analysis and differential scanning calorimetry under the following conditions. DSC data were collected on a TA Instruments Q2000 equipped with a 50 position auto-sampler. The instrument was calibrated for energy and temperature calibration using certified indium. Typically 0.5-3 mg of each sample, in a pin-holed aluminium pan, was heated at 10° C.·min^−1 from 25° C. to 270° C.
TGA data were collected on a TA Instruments Q500 TGA, equipped with a 16 position auto-sampler. The instrument was temperature calibrated using certified Alumel. Typically 5-30 mg of each sample was loaded onto a pre-tared platinum crucible and aluminium DSC pan, and was heated at 10° C.·min^−1 from ambient temperature to 300° C. A nitrogen purge at 60 ml·min^−1 was maintained over the sample. The instrument control software was Thermal Advantage v4.6.6 and the data were analysed using Universal Analysis v4.3A. Alternatively, TGA data were collected on a Mettler TGA/SDTA 851e equipped with a 34 position auto-sampler. The instrument was temperature calibrated using certified indium. Typically 5-30 mg to of each sample was loaded onto a pre-weighed aluminium crucible and was heated at 10° C.·min^−1 from ambient temperature to 300° C. A nitrogen purge at 50 ml·min^−1 was maintained over the sample. The instrument control and data analysis software was STARe v9.01.

[3] = Gravimetric Vapour Sorption (GVS) with post-GVS XRPD; settings: for solid form / XRPD pattern post GVS compared with before: XRPD after GVS experiment; for GVS mass gain: from 40% RH to 90% RH; for GVS mass lost on going to dryness: from 90% RH to dryness
[4] = Karl-Fischer analysis
[5] = Variable temperature X-ray diffraction
Method: Samples run under non-ambient conditions were mounted on a silicon wafer with heat-conducting compound. The sample was then heated to the appropriate temperature at ca. 10° C.·min^−1 and subsequently held isothermally for ca 2 minutes before data collection was initiated.
In order to probe the stability of the samples of the citrate salts variable temperature X-ray diffraction was carried out. Thus, the salts were scanned under X-ray diffraction conditions at a series of temperatures and the characteristic peaks determined.

[6] = Stress tests at elevated temperature and humidity, analysed by XRPD
Method: The group three material was stressed under conditions which might cause it is to convert to group one material or, indeed, another hydrated or polymorphic form. Thus samples were stored at 40° C./75% RH and also at 60° C./96% RH and analysed at regular intervals by XRPD.
The stability of the citrate salt group A material was tested in harsher conditions, when the samples were kept for a week in a humidity chamber at 60° C. and 96% RH.

[7] = Maturation of citrate salt in 27 solvents, solids analysed by XRPD
Method: In order to determine the propensity of polymorphism for the citrate salt the group A material was maturated in 27 different solvents. A small amount of solid was slurried with the corresponding solvent (see Table 4 below) and stored in the incubator and subjected to 4 h-heat/cool cycles at 50° C./r.t. for 24 h. The solvents were then removed under vacuum, and the remaining solids analysed by XRPD.

[8] = hydrochloride salt batches, hydrochloride

C1=CCOCc2cc(ccc2OCCN2CCCC2)Nc2nccc(n2)-c2cccc(c2)COC1.Cl [Batch HCl 4, 11-(2-pyrrolidin-1-yl-ethoxy)-14,19-dioxa-5,7,26-triaza-tetracyclo[19.3.1.1(2,6).1(8,12)]heptacosa-1(25),2(26),3,5,8,10,12(27),16,21,23-decaene hydrochloride]
Solid Form Comment [1, 8]: Group 1
TGA mass loss ([2]; between ambient and 108° C.): 6.5%
solid form / XRPD pattern post GVS compared with before ([3]; hydrochloride): unchanged
GVS mass gain [3]: 1.6%
GVS mass lost on going to dryness ([3]; hydrochloride): 2.8%

C1=CCOCc2cc(ccc2OCCN2CCCC2)Nc2nccc(n2)-c2cccc(c2)COC1.Cl [Batch HCl 6, 11-(2-pyrrolidin-1-yl-ethoxy)-14,19-dioxa-5,7,26-triaza-tetracyclo[19.3.1.1(2,6).1(8,12)]heptacosa-1(25),2(26),3,5,8,10,12(27),16,21,23-decaene hydrochloride]
Solid Form Comment [1, 8]: Group 3
decomposition / degradation temperature in TGA ([2]; hydrochloride): around 240 °C
TGA weight loss before degradation / melt with decomposition [2]: very little weight loss
solid form / XRPD pattern post GVS compared with before ([3]; hydrochloride): unchanged
GVS mass gain [3]: 1.6%
GVS mass lost on going to dryness ([3]; hydrochloride): 2.4%

C1=CCOCc2cc(ccc2OCCN2CCCC2)Nc2nccc(n2)-c2cccc(c2)COC1.Cl [Batch HCl 2, 11-(2-pyrrolidin-1-yl-ethoxy)-14,19-dioxa-5,7,26-triaza-tetracyclo[19.3.1.1(2,6).1(8,12)]heptacosa-1(25),2(26),3,5,8,10,12(27),16,21,23-decaene hydrochloride]
Solid Form Comment [1, 8]: Predominately Group 1
decomposition / degradation temperature in TGA [2]: 260 °C
water lost in the first phase of the TGA ([2]; hydrochloride): 5.6%
equivalents of water corresponding to TGA weight loss ([2]; hydrochloride): 1.67 equivalents of water

C1=CCOCc2cc(ccc2OCCN2CCCC2)Nc2nccc(n2)-c2cccc(c2)COC1.Cl [Batch HCl 5, 11-(2-pyrrolidin-1-yl-ethoxy)-14,19-dioxa-5,7,26-triaza-tetracyclo[19.3.1.1(2,6).1(8,12)]heptacosa-1(25),2(26),3,5,8,10,12(27),16,21,23-decaene hydrochloride]
Solid Form Comment [1, 8]: Group 2

C1=CCOCc2cc(ccc2OCCN2CCCC2)Nc2nccc(n2)-c2cccc(c2)COC1.Cl [Batch HCl 3, 11-(2-pyrrolidin-1-yl-ethoxy)-14,19-dioxa-5,7,26-triaza-tetracyclo[19.3.1.1(2,6).1(8,12)]heptacosa-1(25),2(26),3,5,8,10,12(27),16,21,23-decaene hydrochloride]
Solid Form Comment [1, 8]: Group 1 + 3 + little amorphous
decomposition / degradation temperature in TGA [2]: 260 °C
total weight lost in the TGA [2]: 3.4%
another loss in TGA ([2]; at 165° C.): 1.97%
water lost in the first phase of the TGA ([2]; hydrochloride): 1.5%
equivalents of water corresponding to TGA weight loss ([2]; hydrochloride): 0.5 equivalents of water
equivalents of water by Karl-Fischer analysis [4]: 1.1 equivalents
water content by Karl-Fischer analysis [4]: 3.79%

C1=C/COCc2cc(ccc2OCCN2CCCC2)Nc2nccc(n2)-c2cccc(c2)COC/1 [Batch Citrate 1, 11-(2-pyrrolidin-1-yl-ethoxy)-14,19-dioxa-5,7,26-triaza-tetracyclo[19.3.1.1(2,6).1(8,12)]heptacosa-1(25),2(26),3,5,8,10,12(27),16,21,23-decaene]
Solid Form Comment ([1]; citrate salt batches): Group A
decomposition / degradation temperature in TGA [2]: 180 °C
TGA weight loss before degradation / melt with decomposition [2]: no weight loss
solid form / XRPD pattern post GVS compared with before [3]: no change
GVS water taken up ([3]; between 0 and 90% RH): less than 0.8%
hygroscopicity ([3]; result in words): low hygroscopicity
change of X-ray diffraction pattern with temperature [5]: no change irrespective of the temperature

C1=CCOCc2cc(ccc2OCCN2CCCC2)Nc2nccc(n2)-c2cccc(c2)COC1.Cl [Batch HCl 1, 11-(2-pyrrolidin-1-yl-ethoxy)-14,19-dioxa-5,7,26-triaza-tetracyclo[19.3.1.1(2,6).1(8,12)]heptacosa-1(25),2(26),3,5,8,10,12(27),16,21,23-decaene hydrochloride]
Solid Form Comment [1, 8]: Group 1 + 3 + amorphous
equivalents of water corresponding to TGA weight loss ([2]; hydrochloride): 1.4 equivalents of water
TGA two stage weight loss, total ([2]; up to 100° C.): 4.5%
GVS adsorption of water in the initial adsorption cycle ([3]; at 90% RH): 5.5%
GVS mass lost on going to dryness ([3]; hydrochloride): 5%
GVS mass regained ([3]; from dryness to 40% RH): 2%
GVS total gain ([3]; whole GVS cycle): 2%

C1=CCOCc2cc(ccc2OCCN2CCCC2)Nc2nccc(n2)-c2cccc(c2)COC1.Cl [group 3 hydrochloride, 11-(2-pyrrolidin-1-yl-ethoxy)-14,19-dioxa-5,7,26-triaza-tetracyclo[19.3.1.1(2,6).1(8,12)]heptacosa-1(25),2(26),3,5,8,10,12(27),16,21,23-decaene hydrochloride]
solid form by XRPD after stress (Comment) ([6]; 40° C./75% RH, 0 hrs): Group three
solid form by XRPD after stress (Comment) ([6]; 40° C./75% RH, 24 hrs): Group three
solid form by XRPD after stress (Comment) ([6]; 40° C./75% RH, 48 hrs): Group three
solid form by XRPD after stress (Comment) ([6]; 40° C./75% RH, 72 hrs): Group one
solid form by XRPD after stress (Comment) ([6]; 60° C./96% RH, 0 hrs): Group three
solid form by XRPD after stress (Comment) ([6]; 60° C./96% RH, 24 hrs): Group one

C1=C/COCc2cc(ccc2OCCN2CCCC2)Nc2nccc(n2)-c2cccc(c2)COC/1 [citrate salt group A material, 11-(2-pyrrolidin-1-yl-ethoxy)-14,19-dioxa-5,7,26-triaza-tetracyclo[19.3.1.1(2,6).1(8,12)]heptacosa-1(25),2(26),3,5,8,10,12(27),16,21,23-decaene]
change of crystalline pattern (XRPD) after stress ([6]; one week in humidity chamber at 60° C. and 96% RH): no changes are observed
Solid Form after maturation ([7]; 1,4-dioxane): Form A
Solid Form after maturation ([7]; 1-butanol): Form A
Solid Form after maturation ([7]; 1-pentanol): Form A
Solid Form after maturation ([7]; 1-propanol): Form A
Solid Form after maturation ([7]; 2-butanol): Form A
Solid Form after maturation ([7]; 2-methoxy ethanol): Form A
Solid Form after maturation ([7]; 3-methyl-1-butanol): Form A
solid forms identified after maturation ([7]; 27 different solvents, 4 h heat/cool cycles 50° C./r.t. for 24 h): only one solid form
Solid Form after maturation ([7]; Acetonitrile): Form A
Solid Form after maturation ([7]; Cyclohexane): Form A
Solid Form after maturation ([7]; DMSO): Form A
Solid Form after maturation ([7]; Dicloro-methane): Form A
Solid Form after maturation ([7]; Ethanol): Form A
Solid Form after maturation ([7]; Ethyl acetate): Form A
Solid Form after maturation ([7]; Heptane): Form A
Solid Form after maturation ([7]; IPA): Form A
Solid Form after maturation ([7]; Isobutyl acetate): Form A
Solid Form after maturation ([7]; Isopropyl acetate): Form A
Solid Form after maturation ([7]; Methyl isobutyl ketone): Form A
Solid Form after maturation ([7]; Methylethyl ketone): Form A
Solid Form after maturation ([7]; Nitromethane): Form A
Solid Form after maturation ([7]; Propyl acetate): Form A
Solid Form after maturation ([7]; TBME): Form A
Solid Form after maturation ([7]; Tetrahydro furan): Form A
Solid Form after maturation ([7]; Toluene): Form A
Solid Form after maturation ([7]; Water): Form A
Solid Form after maturation ([7]; acetone): Form A
Solid Form after maturation ([7]; methanol): Form A
